Assay results reported in ChEMBL document CHEMBL1201862, “PubChem BioAssay data set” (2004).
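Briefly, cells in 96-well plates were exposed to five compound concentrations for 48 h, and endpoints were estimated by linear interpolation. GI50 marks 50% less growth.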 Calls of active or inactive are those of the source. Rule as the data show it: active = GI50 up to about 1.1 µM and inactive = higher.

Columns and labels:
Test in all cases: DTP human tumour cell line panel, 48 h
NCI-H23 = system: NCI-H23
LOX IMVI = system: LOX IMVI
M14 = system: M14
SK-MEL-2 = system: SK-MEL-2
SNB-19 = system: SNB-19
DU-145 = system: DU-145
SF-268 = system: SF-268
OVCAR-5 = system: OVCAR-5
SNB-75 = system: SNB-75
COLO 205 = system: COLO 205
MOLT-4 = system: MOLT-4
MDA-MB-231 = system: MDA-MB-231
OVCAR-8 = system: OVCAR-8
HCT-116 = system: HCT-116
T47D = system: T47D
MDA-N = system: MDA-N
K562 = system: K562
RXF 393 = system: RXF 393
SF-539 = system: SF-539

Measured: GI50

CCOC(=O)CCc1cccc2c1oc1c(CCNC(=O)OCC3c4ccccc4-c4ccccc43)cccc12
inactive: NCI-H23 25.6 µM | LOX IMVI 75.9 µM | M14 38.5 µM | SK-MEL-2 76.6 µM | SNB-19 19.9 µM | DU-145 > 100 µM | SF-268 25.2 µM | OVCAR-5 > 100 µM | SNB-75 13.1 µM | COLO 205 34.5 µM | MOLT-4 > 100 µM | MDA-MB-231 16.2 µM | OVCAR-8 24.9 µM | HCT-116 79.3 µM | T47D 22.8 µM | MDA-N > 100 µM | K562 > 100 µM

O=c1nc(Oc2c(F)c(F)c(F)c(F)c2F)ccn1C1OC(CO)C(O)C1O (configuration not stated)
inactive: RXF 393 > 100 µM | NCI-H23 > 100 µM | LOX IMVI > 100 µM | M14 > 100 µM | SK-MEL-2 > 100 µM | SNB-19 > 100 µM | DU-145 > 100 µM | SF-268 > 100 µM | OVCAR-5 > 100 µM | SNB-75 > 100 µM | SF-539 > 100 µM | COLO 205 > 100 µM | MOLT-4 43.9 µM | MDA-MB-231 > 100 µM | OVCAR-8 > 100 µM | HCT-116 > 100 µM | T47D > 100 µM | K562 > 100 µM

Cc1[nH]nc(C(=O)N/N=C/c2cccs2)c1/N=N\N(C)C
inactive: RXF 393 14.6 µM | NCI-H23 12.6 µM | LOX IMVI 4.3 µM | M14 24.7 µM | SK-MEL-2 35.2 µM | SNB-19 8.38 µM | DU-145 9.53 µM | SF-268 9.4 µM | OVCAR-5 29.7 µM | SNB-75 2.89 µM | SF-539 13.3 µM | COLO 205 11.9 µM | MOLT-4 3.75 µM | MDA-MB-231 23.1 µM | OVCAR-8 11.6 µM | HCT-116 11 µM | T47D 9.12 µM | K562 3.9 µM

CC(C)=CCC[C@@H](C)c1c2nc3ccccc3sc-2c(C)c(=O)c1O
inactive: RXF 393 9.35 µM | NCI-H23 5.93 µM | LOX IMVI 4.94 µM | M14 4.75 µM | SK-MEL-2 9.71 µM | SNB-19 38.5 µM | DU-145 17.5 µM | SF-268 3.99 µM | OVCAR-5 16.7 µM | SNB-75 5.53 µM | SF-539 3.01 µM | COLO 205 18.8 µM | MOLT-4 2.32 µM | MDA-MB-231 15.1 µM | OVCAR-8 2.94 µM | HCT-116 3.37 µM | T47D 3.45 µM | K562 8.22 µM

CO/N=C1\CCC2(O)C3Cc4ccc(O)c5c4C2(CCN3CC2CC2)[C@H]1O5 (some centres not stated)
inactive: NCI-H23 > 100 µM | LOX IMVI > 100 µM | M14 > 100 µM | SK-MEL-2 > 100 µM | SNB-19 > 100 µM | DU-145 > 100 µM | SF-268 > 100 µM | OVCAR-5 > 100 µM | SF-539 > 100 µM | COLO 205 > 100 µM | MOLT-4 > 100 µM | MDA-MB-231 > 100 µM | OVCAR-8 > 100 µM | HCT-116 > 100 µM | T47D > 100 µM | MDA-N > 100 µM | K562 > 100 µM

CCOC(=O)[C@@]1(C)CC(O)C(=O)N1C (some centres not stated)
inactive: RXF 393 > 100 µM | NCI-H23 > 100 µM | LOX IMVI > 100 µM | M14 > 100 µM | SK-MEL-2 > 100 µM | SNB-19 > 100 µM | DU-145 > 100 µM | SF-268 > 100 µM | OVCAR-5 > 100 µM | SF-539 > 100 µM | COLO 205 > 100 µM | MOLT-4 > 100 µM | MDA-MB-231 > 100 µM | OVCAR-8 > 100 µM | HCT-116 > 100 µM | T47D > 100 µM

O=C1c2cc([N+](=O)[O-])cnc2S(=O)(=O)N1c1ccc(Oc2ccccc2)cc1
inactive: RXF 393 34.2 µM | NCI-H23 > 100 µM | LOX IMVI > 100 µM | M14 > 100 µM | SK-MEL-2 > 100 µM | SNB-19 > 100 µM | DU-145 > 100 µM | OVCAR-5 > 100 µM | SNB-75 > 100 µM | COLO 205 > 100 µM | MOLT-4 33 µM | MDA-MB-231 > 100 µM | OVCAR-8 > 100 µM | HCT-116 > 100 µM | T47D > 100 µM | K562 > 100 µM

O=C(OCCN=c1c2ccccc2ccc2ccccc12)c1ccccc1
inactive: RXF 393 > 100 µM | NCI-H23 > 100 µM | LOX IMVI 72.1 µM | M14 > 100 µM | SK-MEL-2 > 100 µM | SNB-19 40.5 µM | DU-145 > 100 µM | SF-268 > 100 µM | OVCAR-5 > 100 µM | SNB-75 > 100 µM | SF-539 50.1 µM | COLO 205 92.5 µM | MOLT-4 > 100 µM | MDA-MB-231 91.8 µM | OVCAR-8 78.7 µM | HCT-116 42.2 µM | MDA-N > 100 µM | K562 38 µM

O=c1n(-c2ccccc2)c(=O)n2c(-c3ccccc3)c(-c3ccccc3)n12
inactive: RXF 393 15.9 µM | NCI-H23 > 100 µM | LOX IMVI 72.1 µM | M14 52.1 µM | SK-MEL-2 > 100 µM | SNB-19 > 100 µM | OVCAR-5 > 100 µM | SNB-75 76.9 µM | SF-539 > 100 µM | COLO 205 91.6 µM | MOLT-4 37.4 µM | MDA-MB-231 > 100 µM | OVCAR-8 > 100 µM | HCT-116 37.4 µM | MDA-N > 100 µM | K562 80.9 µM

NS(=O)(=O)c1nnc(NC(=O)N(c2ccccc2)c2ccccc2)s1
inactive: RXF 393 18.4 µM | NCI-H23 19.1 µM | LOX IMVI 15.9 µM | M14 15.2 µM | SK-MEL-2 31.3 µM | SNB-19 24.4 µM | DU-145 14.2 µM | SF-268 30.3 µM | OVCAR-5 24.8 µM | SNB-75 18.5 µM | SF-539 17.6 µM | COLO 205 37.9 µM | MOLT-4 21.1 µM | MDA-MB-231 70.1 µM | OVCAR-8 19.9 µM | HCT-116 29.4 µM | MDA-N 25.4 µM | K562 33.5 µM

O=c1[nH]nc(Nc2ccccc2)c2nnn(C3CCCCC3)c12
inactive: NCI-H23 > 100 µM | LOX IMVI > 100 µM | M14 > 100 µM | SK-MEL-2 > 100 µM | SNB-19 > 100 µM | DU-145 > 100 µM | OVCAR-5 > 100 µM | COLO 205 > 100 µM | MOLT-4 > 100 µM | MDA-MB-231 > 100 µM | OVCAR-8 > 100 µM | HCT-116 > 100 µM | MDA-N > 100 µM | K562 > 100 µM

COc1cc(C2SCC(=O)N2c2ccc(NC(C)=O)cc2)cc(OC)c1OC (configuration not stated)
inactive: NCI-H23 > 100 µM | LOX IMVI > 100 µM | M14 > 100 µM | SK-MEL-2 > 100 µM | SNB-19 > 100 µM | DU-145 > 100 µM | SF-268 > 100 µM | OVCAR-5 > 100 µM | SF-539 > 100 µM | COLO 205 > 100 µM | MOLT-4 50.9 µM | MDA-MB-231 > 100 µM | OVCAR-8 77.1 µM | HCT-116 69.7 µM | T47D 16.6 µM | MDA-N 33.8 µM | K562 > 100 µM

COc1ccc(Cc2c(N)[nH]c(=O)n(C)c2=O)cc1
inactive: RXF 393 > 100 µM | NCI-H23 > 100 µM | LOX IMVI 56 µM | M14 > 100 µM | SK-MEL-2 > 100 µM | SNB-19 > 100 µM | SF-268 34.6 µM | OVCAR-5 > 100 µM | SNB-75 11.9 µM | SF-539 > 100 µM | COLO 205 > 100 µM | MDA-MB-231 92.7 µM | OVCAR-8 > 100 µM | HCT-116 > 100 µM | T47D > 100 µM | MDA-N > 100 µM | K562 > 100 µM

Oc1c(/N=N/c2ccccc2)c2ccccc2c2ccc3ccccc3c12
inactive: RXF 393 56.1 µM | NCI-H23 > 100 µM | M14 57.5 µM | SK-MEL-2 > 100 µM | SNB-19 > 100 µM | DU-145 > 100 µM | SF-268 > 100 µM | OVCAR-5 > 100 µM | SNB-75 64.1 µM | SF-539 34.5 µM | COLO 205 > 100 µM | MOLT-4 40.6 µM | MDA-MB-231 78.3 µM | OVCAR-8 76.6 µM | HCT-116 > 100 µM | T47D > 100 µM | K562 35.3 µM

C[Si](C)(OCCS(=O)(=O)O)OC(=C1S(=O)(=O)OCCOS1(=O)=O)c1cccc2ccccc12
inactive: RXF 393 37.2 µM | NCI-H23 > 100 µM | LOX IMVI > 100 µM | M14 > 100 µM | SK-MEL-2 > 100 µM | SNB-19 > 100 µM | DU-145 > 100 µM | SF-268 64 µM | OVCAR-5 > 100 µM | SNB-75 > 100 µM | SF-539 > 100 µM | COLO 205 > 100 µM | MOLT-4 > 100 µM | MDA-MB-231 > 100 µM | OVCAR-8 > 100 µM | HCT-116 > 100 µM | MDA-N > 100 µM | K562 84.5 µM

CC(C)(C)OC(=O)N(CCCN)CCCCN(CCCN)C(=O)OC(C)(C)C
inactive: RXF 393 > 100 µM | NCI-H23 > 100 µM | LOX IMVI > 100 µM | M14 > 100 µM | SK-MEL-2 > 100 µM | SNB-19 > 100 µM | DU-145 > 100 µM | SF-268 > 100 µM | OVCAR-5 > 100 µM | SNB-75 > 100 µM | SF-539 > 100 µM | COLO 205 > 100 µM | MOLT-4 > 100 µM | OVCAR-8 > 100 µM | HCT-116 > 100 µM | T47D > 100 µM | K562 > 100 µM
